This assay concerns Rattus norvegicus. Put plainly: Antidiabetic activity in STZ-diabetic rat assessed as lowering of plasma glucose level at 1 mM/kg. The assay is classed as functional.

Results on 2 compounds are retold here after ChEMBL document CHEMBL1159384, “Antidiabetic dimeric guianolides and a lignan glycoside from Lactuca indica” (2003).

Turning to `C=C1C(=O)O[C@@H]2[C@H]3C(COC(=O)Cc4ccc(O)cc4)=CC(=O)C3=C(C)C[C@H](O[C@H]3CC(C)=C4C(=O)C=C(COC(=O)Cc5ccc(O)cc5)[C@@H]4[C@H]4OC(=O)[C@@H](C)[C@@H]43)[C@@H]12` [LACTUCAIN C], the Activity was -22.74%.

With `COc1cc([C@H]2O[C@@H](O)[C@@H]3[C@H]2[C@H](O[C@@H]2O[C@H](CO)[C@@H](O)[C@H](O)[C@H]2O)O[C@@H]3c2ccc(O)c(OC)c2)ccc1O` [LACTUCASIDE], the Activity is -17.95%.
